Assay results from US6107324A, “5-HT2A receptor inverse agonists” (priority 1999, dated 2000).
Residue numbers refer to the chain shown, from its start. Read-outs that look alike come from different tables or passages of the source.

Legend:
[1] = molecular target: T1, constitutively active mutant human 5HT2C receptor AP-1 (Homo sapiens, UniProt P28335, S310K); assay: [35S]GTPγS binding assay, constitutively active mutant human 5HT2C receptor AP-1; format: biochemical
T1 sequence (P28335 33-458 S310K): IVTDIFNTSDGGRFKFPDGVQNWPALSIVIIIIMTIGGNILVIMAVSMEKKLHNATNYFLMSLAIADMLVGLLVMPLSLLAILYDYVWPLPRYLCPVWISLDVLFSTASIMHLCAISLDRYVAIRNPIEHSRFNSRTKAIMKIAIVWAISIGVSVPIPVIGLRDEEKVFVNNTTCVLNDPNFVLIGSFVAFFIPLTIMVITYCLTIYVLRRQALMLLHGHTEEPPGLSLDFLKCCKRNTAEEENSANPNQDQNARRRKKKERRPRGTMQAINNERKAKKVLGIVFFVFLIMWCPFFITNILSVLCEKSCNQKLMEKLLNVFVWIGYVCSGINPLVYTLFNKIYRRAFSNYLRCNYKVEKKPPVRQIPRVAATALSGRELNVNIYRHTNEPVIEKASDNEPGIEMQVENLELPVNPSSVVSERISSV

[2] = system: human mutated 5HT2A receptor, AP-3; assay: Inositol phosphate (IP3) accumulation assay, AP-3; format: cell-based; details: preferred compounds tables (μM)
[3] = system: 5HT2A receptor (cerebral cortex); assay: I125-LSD displacement from rat brain sections, cerebral cortex (5HT2A); format: binding, Sprague-Dawley rats; details: 1 micromolar compound, 1 nanomolar I125-LSD, 30 minutes room temperature
[4] = system: Adult male Sprague-Dawley rats; assay: Amphetamine-stimulated locomotor activity in rats; format: in vivo
Description: A 5HT2A receptor antagonist or inverse agonist is expected to decrease amphetamine-stimulated locomotion without affecting baseline locomotion. See, for example, Soresnon, et al, 266(2) J. Pharmacol. Exp. Ther. 684 (1993). […] For the following study, the following parameters and protocol were utilized:
Adult male Sprague-Dawley rats were utilized for these studies. Animals were housed in groups of 2-3 in hanging plastic cages with food and water available at all times. Animals were weighed and handled for at least one day prior to surgery and throughout the studies. For these studies, Vehicle consisted of 90% ethanol (100%) and 10% water.
A San Diego Instruments Flex Field apparatus was used to quantify baseline and amphetamine-stimulated locomotor activity. This apparatus consists of four 16"×16" clear plastic open fields. Photocell arrays (16 in each dimension) interfaced with a personal computer to automatically quantify activity. Several measures of activity can be assessed with the apparatus, including total photocell beam breaks. Animals (vehicle control and Compound treated) were injected s.c. 30 minutes prior to initiation of analysis. Following this 30 minute period, animals were placed individually into an open field and baseline activity was assessed for 30 minutes (habituation phase). […]

[5] = molecular target: T2, Wild Type Human 5HT2A Receptor (Homo sapiens, UniProt P28223); assay: [3H]LSD competitive binding assay, wild type 5HT2A
T2 construct: expressed in transfected cells; host or cells: COS-7 cells, transient transfection (pCMV); membranes

[6] = molecular target: T3, endogenous human 5-HT2C receptor (Homo sapiens, UniProt P28335)
T3 sequence (P28335 33-458): T1 sequence (P28335 33-458 S310K) with K278S

T2 sequence (P28223 whole entry T25N/H452Y): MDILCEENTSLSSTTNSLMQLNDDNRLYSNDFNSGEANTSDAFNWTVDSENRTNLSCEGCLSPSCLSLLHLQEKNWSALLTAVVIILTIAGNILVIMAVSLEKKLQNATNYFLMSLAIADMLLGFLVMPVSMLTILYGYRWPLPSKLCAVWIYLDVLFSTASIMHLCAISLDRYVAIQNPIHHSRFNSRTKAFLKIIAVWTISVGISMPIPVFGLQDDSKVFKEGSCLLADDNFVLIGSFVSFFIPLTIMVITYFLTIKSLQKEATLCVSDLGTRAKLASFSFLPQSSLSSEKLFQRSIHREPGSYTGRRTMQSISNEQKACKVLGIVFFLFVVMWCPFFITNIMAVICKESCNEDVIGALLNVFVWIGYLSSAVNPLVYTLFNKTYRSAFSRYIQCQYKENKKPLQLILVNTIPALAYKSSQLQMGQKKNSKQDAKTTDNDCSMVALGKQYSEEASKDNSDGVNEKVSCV

Cn1cc(Br)c(-c2cccc(NC(=O)Nc3ccc(OC(F)(F)F)cc3)c2)n1 [Compound 103487, N-[3-(4-bromo-1-methylpyrazol-3-yl)phenyl][{(4-trifluoromethoxy)phenyl}amino]carboxamide] gave an inhibition at 10 µM ([1]; read-out: GTPγS AP-1 Percent Inhibition Relative To Positive Control (Primary)) of -1% and an inhibition at 10 µM ([1]; read-out: GTPγS AP-1 Percent Inhibition Relative To Positive Control (Reconfirm)) of 31%.
For COc1ccc(OC(=O)Nc2cccc(-c3nn(C)cc3Br)c2)cc1 [Compound 116100, N-[3-(4-bromo-1-methylpyrazol-3-yl)phenyl][4-methoxyphenoxy]carboxamide], the IC50 [2] was 0.0003 µM and the “displacement of I125-LSD from cortex” value [3] was “selectively displace the I^125 -LSD from the cortex (5HT2A)”.
Cn1cc(Br)c(-c2cccc(NC(=O)c3cccs3)c2)n1 [Compound 116102, N-[3-(4-bromo-1-methylpyrazol-3-yl)phenyl][2-thienyl]carboxamide] was tested, and the amphetamine-stimulated locomotion ([4]; s.c., 0.1, 1.0, 5.0, 10.0 mg/kg, d-amphetamine sulfate 1.0 mg/kg, photobeam breaks) was “with exception of the highest dose (10 mg/kg), in vivo, the tested doses of Compound 116102 evidenced a decrease in the amphetamine-stimulated locomotion” and the “dose-response pattern of locomotor activity” value ([4]; s.c., 0.1-10.0 mg/kg, FIGS. 17A-C) was “"inverted U" shaped pattern”.
CC(C)c1ccc(NC(=O)Nc2cccc(-c3nn(C)cc3Br)c2)cc1 [Compound 116110, {[3-(4-bromo-1-methylpyrazol-3-yl)phenyl]amino}-N-[4-(methylethyl)phenyl]carboxamide] showed an IC50 [5] of 338 nM.
Cn1cc(Br)c(-c2cccc(NC(=O)OC(C)(C)C)c2)n1 [Compound 116192] was tested, and the IC50 [2] was 0.057 µM.
Work on CSc1ccc2c(c1)C(N1CCN(C)CC1)Cc1ccccc1S2 (stereo not shown) [Methiothepin] yielded an IC50 [1] of 20.4 nM.
Clc1ccc2c(c1)N=C(N1CCNCC1)c1ccccc1N2 [Normethylclozapin] showed an IC50 [1] of 21.4 nM.
In the case of CN1CCN2c3ccccc3Cc3ccccc3C2C1 (stereo not shown) [mianserin], the “[35S]GTPγS binding, serotonin stimulation and inhibition by mianserin” value ([1]; FIG. 10, AP-1 receptors in 293T cells, mianserin 30 μM, Wallac scintistrips) is reported as “inhibition”, the “inhibition of serotonin-stimulated [35S]GTPγS binding” value ([6]; 30 μM (FIG. 9), FIG. 10 on Wallac scintistrips) is reported as “inhibits this response” and the “effect on basal constitutive [35S]GTPγS binding” value ([6]; FIG. 10, membranes expressing endogenous human 5-HT2C receptor) is reported as “partial inverse agonist”.
